SMILES | melting point [°C]
CCN(c1cc(C)c(C)c2cc(-c3ncc(CO)s3)[nH]c12)S(=O)(=O)c1cccs1 | 189 to 190
Cc1c(-c2ccc(O)cc2)nnn1-c1ccc(C(F)(F)F)cc1Cl | 176 to 177
CCOC(=O)C(CNC(=O)CSC(=O)c1ccccc1)NC(=O)CSC(=O)c1ccccc1 (stereo not given) | 130 to 131
CCCNC(=O)C1Cc2c([nH]c3ccccc23)C(c2ccc3c(c2)OCO3)N1C(C)=O (stereo not given) | 163 to 165
CC(C)OC(=O)N1CCC(NC(=O)N2CCn3c(c(C(N)=O)c(C#N)c3-c3ccccc3)C2)CC1 | 172 to 174
CN1C(=O)C(Cl)=C(C#N)C1=O | 141 to 143
Cc1nc(N2CCCC(Cc3cccc(F)c3)C2=O)sc1C(=O)NCc1ccccc1 (stereo not given) | 170 to 171
CC(C)(C)NC(=O)[C@@H]1CC(OCCCCF)CN1C(=O)[C@@H](O)[C@H](Cc1ccccc1)NC(=O)[C@H](CC(N)=O)NC(=O)OCc1ccccc1 (stereo not given in full) | 68 to 71
O=C1Nc2ccc(Cl)cc2C1(Cl)c1cccc(F)c1F (stereo not given) | 248
Cc1ccc(S(=O)(=O)NC(=O)C2C(=O)CC3(CCCCC3)CC2=O)cc1 | 150 to 152
Cc1ccccc1-c1cccc(F)c1C(=O)NCCCl | 78 to 81
CS(=O)(=O)c1ccc(-c2cnn(CC(F)(F)F)c(=O)c2Nc2ccc(F)cc2)cc1 | 158 to 160
COc1cc(O)cc2nc(-c3ccc(O)cc3)oc12 | 225 to 228
CCOC(=O)C(=O)Nc1cc(C(=O)O)ccc1O | > 300
CNC(=O)C(CC(=O)N(CC(=O)NO)CC(C)C)CC(C)C (stereo not given) | 60.5 to 61.5
COCOc1ccc(C=C2CCCC(=Cc3ccc(OCOC)c(OC)c3)C2=O)cc1OC | 73 to 75
Nc1sc2c(c1C(=O)c1ccc(Cl)c3ccccc13)CCCC2 | 179 to 181
COc1ccc2c(c1)c1c3c(c(-c4c(Cl)cccc4Cl)cc1n2CCC(=O)O)C(=O)NC3=O | 203 to 209
CCOCc1nc2c(N)nc3ccccc3c2n1CC1(OCCS(C)(=O)=O)CCC1 | 221 to 223
C=CCNC(=O)COc1ccc(C2=NNC(=O)CC2)cc1Cl | 145 to 146
CCOC(=O)n1c(SCc2nccc(SCCN3CCOCC3)c2C)nc2ccccc21 | 145 to 147
CN1C(C(=O)Nc2cncc(Cl)n2)=C(O)c2cc(Cl)ccc2S1(=O)=O | 283 to 284
c1cc2[nH]ncc2cc1OC1CCCCC1 | 144 to 146
CCN(CC)C(=O)C(C)Oc1nc(-c2ccccc2)cc2ccccc12 (stereo not given) | 117
Cc1ccc(C(C#N)Nc2ccc(S(C)(=O)=O)cc2)cc1 (stereo not given) | 158 to 160

SMILES | melting point [°C]
COc1ccc(CNc2n[nH]c(N)c2C#N)cc1 | 148 to 149
Cc1oc(-c2ccc(C(F)(F)F)cc2)nc1-c1ccc(-c2cc(Br)c(OC(Cc3ccccc3)C(=O)O)c(Br)c2)cc1 (stereo not given) | 241 to 243
CCCc1nc(SC2CCC(CC(=O)O)CC2)c(C(=O)O)n1Cc1cc2c(cc1Cl)OCO2 (stereo not given) | 166
CCOC(=O)C(=O)Nc1ccc(N(C)C)cc1O | 259 to 260
CCCCCN(C(=O)Nc1ccc(C(=O)O)cc1F)c1ccc2c(c1)C(C)(C)CCC2(C)C | 151 to 157
O=[N+]([O-])c1cnc2cc(Cl)ccc2c1Cl | 165 to 167
CCCN(Cc1ccc(-c2ccccc2C(=O)C(=O)O)cc1)c1ncccc1C(=O)O | 179 to 180
C[C@@H]1[C@H]2C(=O)N(Cc3ccccc3)C(=O)[C@H]2[C@@H](c2ccc(C(N)=NO)cc2)N1C (racemic) | 194 to 196
CC(C)Oc1nc(N)nc2c1ncn2C1CC(N=[N+]=[N-])C(CO)O1 (stereo not given) | 195 to 197
CCN1C(=O)NCC1c1ccc(OC)c(OC2CC3CCC2C3)c1 (stereo not given) | 149 to 153
CCN(CC)P(N)(=O)N(c1ccc(S(=O)(=O)c2ccccc2)cc1)c1ccc(S(=O)(=O)c2ccccc2)cc1 (stereo not given) | 115 to 130
CC(=O)c1ccc2c(c1)C1(c3ccccc3-c3ccccc31)c1ccccc1-2 | 225
FC(F)(F)c1ccc(Oc2ccc3nonc3c2)c(Cl)c1 | 65 to 66
CCCc1n[nH]c2ccc(C(=O)O)cc12 | 296 to 299
O=c1[nH]nc2cc(C(c3c(F)ccc(F)c3F)S(=O)(=O)CCC(F)(F)F)c(Cl)cn12 (stereo not given) | 209 to 211
O=C(NC(=Cc1ccccc1)c1ccccc1)C(F)(F)F | 148 to 150
COc1ccc(OCCCN(Cc2cccc(O)c2)c2nc3ccccc3o2)cc1 | 104
Cc1cc(C)cc(-c2nc(N)sc2-c2ccncc2)c1 | 242 to 244
CCCCc1cn2ccccc2c1S(=O)(=O)c1ccc(OCCCBr)cc1 | 119
NC(Cc1ccc(F)cc1)=NO | 104 to 106
Cc1cc(C)nc(-n2cnc(S(=O)(=O)Nc3c(Cl)cccc3Cl)n2)n1 | 274 to 275
N#Cc1cccc(-n2cnc(-c3ccccn3)n2)c1 | 194 to 195
CCn1c(COC(N)=O)nc(C2CC2)c1Sc1cc(C#N)cc(C#N)c1 | 170 to 172
CCc1[nH]c(=O)n(-c2cc(C(=O)OC(C)C)c(Cl)cc2F)c(=O)c1C | 192 to 194
CSC(=NC#N)N1CCc2nc(NC(=N)N)sc2C1 | 224 to 227

— a melting point compilation (Tetko et al.; mined from patent text by program, amines drawn as free bases though some values may be those of a salt)
